In US20180199575A1, “SUBSTITUTED OXOTETRAHYDROQUINOLINYLPHOSPHINIC ACID AND PHOSPHINIC ACID AMIDES OR SALTS THEREOF AND USE THEREOF TO INCREASE STRESS TOLERANCE IN PLANTS” (priority 2015, published 2018) one finds ABI1 inhibition data, which are given here for 1 molecule.

The target of this experiment is T1, phosphatase ABI1 via the co-regulator RCAR11/PYR1 (Arabidopsis thaliana, UniProt O49686+P49597).
T1 sequence (O49686 1-191): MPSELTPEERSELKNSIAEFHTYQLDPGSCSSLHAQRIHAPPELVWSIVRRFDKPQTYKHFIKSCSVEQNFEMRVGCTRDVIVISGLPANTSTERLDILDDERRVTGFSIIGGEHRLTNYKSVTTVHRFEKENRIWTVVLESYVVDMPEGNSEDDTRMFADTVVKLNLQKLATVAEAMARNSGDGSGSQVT
T1 sequence (P49597 1-434): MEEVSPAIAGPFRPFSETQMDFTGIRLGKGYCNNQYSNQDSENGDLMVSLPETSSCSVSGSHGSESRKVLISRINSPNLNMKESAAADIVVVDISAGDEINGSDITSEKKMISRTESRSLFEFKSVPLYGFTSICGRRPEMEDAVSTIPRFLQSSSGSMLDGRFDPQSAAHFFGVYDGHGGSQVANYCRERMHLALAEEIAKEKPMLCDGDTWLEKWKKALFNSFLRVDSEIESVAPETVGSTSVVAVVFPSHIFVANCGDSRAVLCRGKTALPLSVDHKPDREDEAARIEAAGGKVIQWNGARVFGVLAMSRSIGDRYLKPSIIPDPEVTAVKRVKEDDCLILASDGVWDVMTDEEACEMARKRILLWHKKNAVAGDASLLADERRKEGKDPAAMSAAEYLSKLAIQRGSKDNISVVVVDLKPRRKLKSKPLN
The experiment can be described thus: In vitro assay: inhibition of the phosphatase ABI1 via the co-regulator RCAR11/PYR1 (dephosphorylation of 4-methylumbelliferyl phosphate, fluorescence). The following applies: 5 μM substance in a solution of DMSO and water, MUP substrate. The experiment is classed as biochemical. The source says:
Effects of the phytohormone abscisic acid (ABA) on the behavior of plants under abiotic stress and the mechanism of action of ABA are described in the literature (cf. Abrams et al., WO97/23441, Park et al. Science, 2009, 324, 1068; Grill et al. Science, 2009, 324, 1064; Tanokura et al. Biophysics, 2011, 7, 123; Schroeder et al. Plant J. 2010, 61, 290). Therefore, it is possible with the aid of a suitable in vitro test system to derive a correlation between the action of ABA and the stress response of a plant under abiotic stress. In the event of water deficiency (drought stress), plants form the phytohormone abscisic acid (ABA). […]
The assay described hereinafter utilizes the inhibition of the phosphatase ABI1 via the co-regulator RCAR11/PYR1 aus Arabidopsis thaliana. For the determination of activity, the dephosphorylation of 4-methylumbelliferyl phosphate (MUP) was measured at 460 nm. […]
Enzyme buffer mix and substrate mix were made up 5 minutes prior to the addition and warmed to a temperature of 35° C. […] Finally, a relative fluorescence measurement was made at 35° C. with a BMG Labtech “POLARstar Optima” microplate reader using a 340/10 nm excitation filter and a 460 nm emission filter. […]

As to `CC1=CC(=O)CC(C)(C)[C@@]1(O)/C=C/C(C)=C\C(=O)O` [abscisic acid], the ABI1 inhibition result is “++++ (inhibition≥90%)”.
